# From ChEMBL document CHEMBL2086329, “Design and synthesis of potent, selective inhibitors of matriptase” (ACS Med Chem Lett, 2012)
# The source made the active and inactive calls. No cut-off for these calls is given here. Where a SMILES comes first, the peptide text is derived from it. The star is where a group is joined. CH2Cl = ClC*
# Key:
# [1] = biological target: T1, Suppressor of tumorigenicity 14 protein (Homo sapiens, UniProt Q9Y5Y6); assay: Mixed inhibition of human matriptase expressed in Drosophila melanogaster S2 cells using Boc-QAR-AMC as substrate by fluorimetric analysis
# T1 sequence (Q9Y5Y6 whole entry): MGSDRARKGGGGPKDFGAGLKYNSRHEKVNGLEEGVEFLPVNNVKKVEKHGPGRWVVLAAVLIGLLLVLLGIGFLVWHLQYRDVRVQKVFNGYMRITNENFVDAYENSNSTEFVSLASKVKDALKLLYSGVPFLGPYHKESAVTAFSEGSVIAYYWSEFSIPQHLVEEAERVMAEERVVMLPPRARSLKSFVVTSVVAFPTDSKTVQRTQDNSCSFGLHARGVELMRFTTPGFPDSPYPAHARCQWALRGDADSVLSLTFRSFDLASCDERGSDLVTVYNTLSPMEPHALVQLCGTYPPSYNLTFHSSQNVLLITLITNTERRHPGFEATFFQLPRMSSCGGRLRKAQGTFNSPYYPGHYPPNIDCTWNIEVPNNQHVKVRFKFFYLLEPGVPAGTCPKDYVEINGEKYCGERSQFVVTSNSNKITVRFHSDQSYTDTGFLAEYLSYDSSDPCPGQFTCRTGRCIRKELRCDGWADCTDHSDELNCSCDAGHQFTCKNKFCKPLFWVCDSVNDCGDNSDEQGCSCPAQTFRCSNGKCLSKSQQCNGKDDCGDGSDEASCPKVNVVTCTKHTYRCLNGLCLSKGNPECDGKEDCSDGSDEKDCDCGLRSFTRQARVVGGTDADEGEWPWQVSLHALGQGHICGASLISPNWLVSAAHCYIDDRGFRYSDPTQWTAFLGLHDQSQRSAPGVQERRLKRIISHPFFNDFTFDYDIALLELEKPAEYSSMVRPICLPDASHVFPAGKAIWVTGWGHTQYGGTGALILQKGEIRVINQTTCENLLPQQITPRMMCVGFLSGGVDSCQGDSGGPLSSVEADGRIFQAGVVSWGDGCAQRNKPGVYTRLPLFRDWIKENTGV
# Prothrombin = Prothrombin (Homo sapiens, UniProt P00734); assay: Mixed inhibition of human thrombin expressed in Drosophila melanogaster S2 cells using Boc-QAR-AMC as substrate by fluorimetric analysis
# [2] = biological target: T2, Transmembrane protease serine 6 (Homo sapiens, UniProt Q8IU80); assay: Tight binding inhibition of human matriptase2 expressed in Drosophila melanogaster S2 cells using Boc-QAR-AMC as substrate incubated for 15 mins prior to substrate addition measured for 30 mins by fluorimetric analysis
# T2 sequence (Q8IU80 whole entry): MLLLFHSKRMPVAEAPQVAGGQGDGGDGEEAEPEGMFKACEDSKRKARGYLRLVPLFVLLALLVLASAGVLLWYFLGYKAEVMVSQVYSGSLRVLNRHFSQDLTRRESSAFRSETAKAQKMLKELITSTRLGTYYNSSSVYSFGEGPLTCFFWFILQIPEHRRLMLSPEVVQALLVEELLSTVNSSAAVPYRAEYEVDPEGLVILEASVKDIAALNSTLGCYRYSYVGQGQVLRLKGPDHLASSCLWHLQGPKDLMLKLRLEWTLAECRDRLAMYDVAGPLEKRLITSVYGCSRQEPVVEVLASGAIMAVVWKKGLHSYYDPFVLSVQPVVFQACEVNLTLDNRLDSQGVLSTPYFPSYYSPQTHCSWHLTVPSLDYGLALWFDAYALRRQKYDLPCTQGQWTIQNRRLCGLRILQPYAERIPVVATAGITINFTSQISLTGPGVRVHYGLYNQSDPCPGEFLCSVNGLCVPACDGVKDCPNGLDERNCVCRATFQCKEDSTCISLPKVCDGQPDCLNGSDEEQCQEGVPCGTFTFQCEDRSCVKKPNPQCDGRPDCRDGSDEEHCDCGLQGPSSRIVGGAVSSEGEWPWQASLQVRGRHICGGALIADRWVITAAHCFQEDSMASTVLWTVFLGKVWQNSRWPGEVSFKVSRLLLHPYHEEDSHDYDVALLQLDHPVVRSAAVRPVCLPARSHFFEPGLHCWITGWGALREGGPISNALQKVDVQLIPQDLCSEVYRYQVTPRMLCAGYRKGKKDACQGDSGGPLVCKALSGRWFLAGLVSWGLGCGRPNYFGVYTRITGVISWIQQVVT
# Furin (Homo sapiens) = Furin (Homo sapiens) (UniProt P09958); assay: Inhibition of human furin expressed in Drosophila melanogaster S2 cells using Boc-RRVR-AMC as substrate at 10 uM
# Furin (Homo sapiens), sequence (P09958 whole entry): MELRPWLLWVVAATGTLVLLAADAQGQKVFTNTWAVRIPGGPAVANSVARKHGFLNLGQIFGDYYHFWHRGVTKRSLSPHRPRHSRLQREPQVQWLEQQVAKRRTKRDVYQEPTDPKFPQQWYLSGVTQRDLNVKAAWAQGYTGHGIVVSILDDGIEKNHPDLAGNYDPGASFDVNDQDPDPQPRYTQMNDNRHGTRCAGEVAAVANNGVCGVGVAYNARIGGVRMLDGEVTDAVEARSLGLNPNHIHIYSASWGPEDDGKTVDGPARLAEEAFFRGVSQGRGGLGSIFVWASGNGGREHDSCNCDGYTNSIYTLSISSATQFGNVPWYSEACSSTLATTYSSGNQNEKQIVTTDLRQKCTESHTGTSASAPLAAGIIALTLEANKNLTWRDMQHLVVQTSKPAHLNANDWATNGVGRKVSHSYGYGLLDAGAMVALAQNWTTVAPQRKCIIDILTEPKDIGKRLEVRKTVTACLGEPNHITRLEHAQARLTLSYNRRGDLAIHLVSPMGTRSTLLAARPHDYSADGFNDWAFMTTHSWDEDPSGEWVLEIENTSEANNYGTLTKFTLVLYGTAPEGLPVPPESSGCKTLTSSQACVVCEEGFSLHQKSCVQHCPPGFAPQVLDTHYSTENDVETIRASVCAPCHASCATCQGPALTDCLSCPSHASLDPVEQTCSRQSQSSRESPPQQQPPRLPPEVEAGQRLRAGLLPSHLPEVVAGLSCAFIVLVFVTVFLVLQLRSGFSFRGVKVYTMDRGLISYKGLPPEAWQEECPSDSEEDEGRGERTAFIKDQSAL
# [3] = biological target: T3, Transmembrane protease serine 11D (Homo sapiens, UniProt O60235); assay: Tight binding inhibition of human TMPRSS11D expressed in Drosophila melanogaster S2 cells using Boc-QAR-AMC as substrate incubated for 15 mins prior to substrate addition measured for 30 mins by fluorimetric analysis
# T3 sequence (O60235 whole entry): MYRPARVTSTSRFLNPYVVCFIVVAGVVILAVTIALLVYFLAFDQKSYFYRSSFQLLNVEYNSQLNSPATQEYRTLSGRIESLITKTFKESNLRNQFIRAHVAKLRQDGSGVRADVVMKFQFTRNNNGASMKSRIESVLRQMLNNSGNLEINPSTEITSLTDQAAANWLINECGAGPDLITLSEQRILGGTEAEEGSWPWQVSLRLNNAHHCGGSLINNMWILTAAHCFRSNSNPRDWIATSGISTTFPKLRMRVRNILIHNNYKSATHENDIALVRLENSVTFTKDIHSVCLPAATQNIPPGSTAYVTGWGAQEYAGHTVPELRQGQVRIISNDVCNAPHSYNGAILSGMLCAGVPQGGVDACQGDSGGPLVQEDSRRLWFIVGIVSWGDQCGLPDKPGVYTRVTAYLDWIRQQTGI
# [4] = biological target: T4, Suppressor of tumorigenicity 14 protein (Homo sapiens) (UniProt Q9Y5Y6); details: S2, 2.5 nM
# T4 sequence (whole entry): T1 sequence (Q9Y5Y6 whole entry)
# Description: Inhibition of human matriptase expressed in Drosophila melanogaster S2 cells using Boc-QAR-AMC as substrate at 2.5 nM by fluorimetric analysis
# Trypsin = Trypsin (Homo sapiens, UniProt P07477+P07478+P35030); assay: Tight binding inhibition of human trypsin expressed in Drosophila melanogaster S2 cells using Boc-QAR-AMC as substrate incubated for 15 mins prior to substrate addition measured for 30 mins by fluorimetric analysis
# [5] = biological target: T4, Suppressor of tumorigenicity 14 protein (Homo sapiens); assay: Irreversible inhibition of human matriptase expressed in Drosophila melanogaster S2 cells using Boc-QAR-AMC as substrate incubated for 20 mins prior to substrate addition measured for 75 mins by fluorimetric analysis
# [6] = biological target: T1, Suppressor of tumorigenicity 14 protein; assay: Tight binding inhibition of human matriptase expressed in Drosophila melanogaster S2 cells using Boc-QAR-AMC as substrate incubated for 15 mins prior to substrate addition measured for 30 mins by fluorimetric analysis
smiles,measurement,setting,value
N=C(N)NCCC[C@H](N)C(=O)c1nc2ccccc2s1,Ki,[1],457 nM
C[C@H](NC(=O)[C@H](CCC(N)=O)NC(=O)[C@@H](N)CCCNC(=N)N)C(=O)N[C@@H](CCCNC(=N)N)C(=O)c1nc2ccccc2s1,Ki,Prothrombin,637 nM
same,Ki,[2],3.3 nM
same,inhibition,Furin (Homo sapiens),inactive
same,Ki,[3],8.4 nM
same,inhibition,[4],Active
same,Ki,Trypsin,0.97 nM
C[C@H](NC(=O)[C@H](CCC(N)=O)NC(=O)[C@@H](N)CCCNC(=N)N)C(=O)N[C@@H](CCCNC(=N)N)C(O)c1nc2ccccc2s1 (mixture of isomers),Ki,[1],6120 nM
N=C(N)NCCC[C@H](NC(=O)CNC(=O)[C@@H](N)CCC(=O)O)C(=O)CCl (H-Glu-Gly-Arg-CH2Cl),inhibition,[5],Active
C[C@H](N)C(=O)N[C@@H](CCCN=C(N)N)C(=O)c1nc2ccccc2s1,Ki,[6],1.4 nM
